System: glucocorticoid receptor function
Assay: one or more of the above assays (GR binding and glucocorticoid receptor cell assays: aromatase, IL-6, TAT, MMTV-Luc, IL-8, ICAM-Luc)
Assay type: cell-based
Conditions: assay not specified per compound

SMILES	activity as agonists of the glucocorticoid receptor function in one or more of the above assays
COc1ccc(F)cc1C(C)(C)CC(O)(Cc1cc2nc(C(C)C)ncc2[nH]1)C(F)(F)F (stereo not drawn) [1,1,1-Trifluoro-4-(5-fluoro-2-methoxyphenyl)-2-(2-isopropyl-5H-pyrrolo[3,2-d]pyrimidin-6-ylmethyl)-4-methylpentan-2-ol]	potent agonists
Cc1cncc2[nH]c(CC(O)(CC(C)(C)c3cccc(F)c3)C(F)(F)F)cc12 (stereo not drawn) [1,1,1-Trifluoro-4-(3-fluorophenyl)-4-methyl-2-(4-methyl-1H-pyrrolo[2,3-c]pyridin-2-ylmethyl)pentan-2-ol]	potent agonists
CC(C)(CC(O)(Cn1ccc2ncccc21)C(F)(F)F)c1cc(S(C)(=O)=O)cc2c1OCC2 (stereo not drawn) [1,1,1-Trifluoro-4-(5-methanesulfonyl-2,3-dihydrobenzofuran-7-yl)-4-methyl-2-pyrrolo[3,2-b]pyridin-1-ylmethylpentan-2-ol]	potent agonists
COc1ccc(Br)cc1C(C)(C)CC(O)(Cc1cc2cc(N3CCCCC3)ncc2[nH]1)C(F)(F)F (stereo not drawn) [4-(5-Bromo-2-methoxyphenyl)-1,1,1-trifluoro-4-methyl-2-(5-piperidin-1-yl-1H-pyrrolo[2,3-c]pyridin-2-ylmethyl)pentan-2-ol]	potent agonists
CSc1cc2c(c(C(C)(C)CC(O)(Cc3cc4cc(Cl)ncc4[nH]3)C(F)(F)F)c1)OCC2 (stereo not drawn) [2-(5-Chloro-1H-pyrrolo[2,3-c]pyridin-2-ylmethyl)-1,1,1-trifluoro-4-methyl-4-(5-methylsulfanyl-2,3-dihydrobenzofuran-7-yl)pentan-2-ol]	potent agonists
COc1ccc(-c2cncnc2)cc1C(C)(C)CC(O)(Cc1cc2cc(Cl)ncc2[nH]1)C(F)(F)F (stereo not drawn) [2-(5-Chloro-1H-pyrrolo[2,3-c]pyridin-2-ylmethyl)-1,1,1-trifluoro-4-(2-methoxy-5-pyrimidin-5-ylphenyl)-4-methylpentan-2-ol]	potent agonists
COc1ccc(F)cc1C(C)(C)CC(O)(Cn1ccc2c1CCCC2=O)C(F)(F)F (stereo not drawn) [1-[4-(5-Fluoro-2-methoxyphenyl)-2-hydroxy-4-methyl-2-trifluoromethylpentyl]-1,5,6,7-tetrahydroindol-4-one]	agonists
CC(C)(CC(O)(Cc1cc2cc(N3CCOCC3)ncc2[nH]1)C(F)(F)F)c1cccc(-c2cncnc2)c1 (stereo not drawn) [1,1,1-Trifluoro-4-methyl-2-(5-morpholin-4-yl-1H-pyrrolo[2,3-c]pyridin-2-ylmethyl)-4-(3-pyrimidin-5-ylphenyl)pentan-2-ol]	potent agonists
CC(C)(CC(O)(Cc1cc2cc(Oc3ccccc3)ncc2[nH]1)C(F)(F)F)c1cc(-c2cccnc2)ccc1O (stereo not drawn) [4-Pyridin-3-yl-2-[4,4,4-trifluoro-3-hydroxy-1,1-dimethyl-3-(5-phenoxy-1H-pyrrolo[2,3-c]pyridin-2-ylmethyl)butyl]phenol]	potent agonists
COc1ccc(-c2ccccc2)cc1C(C)(C)CC(O)(Cc1cc2cc(OC(C)C)ncc2[nH]1)C(F)(F)F (stereo not drawn) [1,1,1-Trifluoro-2-(5-isopropoxy-1H-pyrrolo[2,3-c]pyridin-2-ylmethyl)-4-(4-methoxybiphenyl-3-yl)-4-methylpentan-2-ol]	potent agonists
COc1ccc(-c2ccccc2)cc1C(C)(C)CC(O)(Cc1cc2c(C)nccc2[nH]1)C(F)(F)F (stereo not drawn) [1,1,1-Trifluoro-4-(4-methoxybiphenyl-3-yl)-4-methyl-2-(4-methyl-1H-pyrrolo[3,2-c]pyridin-2-ylmethyl)pentan-2-ol]	potent agonists
COc1ccc(-c2cncnc2)cc1C(C)(C)CC(O)(Cc1cc2ccncc2[nH]1)C(F)(F)F (stereo not drawn) [1,1,1-Trifluoro-4-(2-methoxy-5-pyrimidin-5-ylphenyl)-4-methyl-2-(1H-pyrrolo[2,3-c]pyridin-2-ylmethyl)pentan-2-ol]	potent agonists
COc1ccc(-c2ccccc2Cl)cc1C(C)(C)CC(O)(Cc1cc2cc(N3CCCCC3)ncc2[nH]1)C(F)(F)F (stereo not drawn) [4-(2′-Chloro-4-methoxybiphenyl-3-yl)-1,1,1-trifluoro-4-methyl-2-(5-piperidin-1-yl-1H-pyrrolo[2,3-c]pyridin-2-ylmethyl)pentan-2-ol]	potent agonists
CC(C)(CC(O)(Cc1cc2cc(-c3ccncc3)ccc2[nH]1)C(F)(F)F)c1cc(F)cc2c1OCC2 (stereo not drawn) [1,1,1-Trifluoro-4-(5-fluoro-2,3-dihydrobenzofuran-7-yl)-4-methyl-2-(5-pyridin-4-yl-1H-indol-2-ylmethyl)pentan-2-ol]	potent agonists
Cc1cc2[nH]c(CC(O)(CC(C)(C)c3cc(Cl)cc4c3OCC4)C(F)F)cc2cn1 (stereo not drawn) [4-(5-Chloro-2,3-dihydrobenzofuran-7-yl)-1,1-difluoro-4-methyl-2-(6-methyl-1H-pyrrolo[3,2-c]pyridin-2-ylmethyl)pentan-2-ol]	agonists
CC(C)(CC(O)(Cc1cc2cc(Cl)ncc2[nH]1)C(F)(F)F)c1cc(Br)ccc1O (stereo not drawn) [4-Bromo-2-[3-(5-chloro-1H-pyrrolo[2,3-c]pyridin-2-ylmethyl)-4,4,4-trifluoro-3-hydroxy-1,1-dimethylbutyl]phenol]	potent agonists
COc1ccc(C)cc1C(C)(C)CC(O)(Cc1cc2nc(N3CCCC3)ncc2[nH]1)C(F)(F)F (stereo not drawn) [1,1,1-Trifluoro-4-(2-methoxy-5-methylphenyl)-4-methyl-2-(2-pyrrolidin-1-yl-5H-pyrrolo[3,2-d]pyrimidin-6-ylmethyl)pentan-2-ol]	potent agonists
COc1ccc(-c2ccsc2)cc1C(C)(C)CC(O)(Cc1cc2ccncc2[nH]1)C(F)(F)F (stereo not drawn) [1,1,1-Trifluoro-4-(2-methoxy-5-thiophen-3-ylphenyl)-4-methyl-2-(1H-pyrrolo[2,3-c]pyridin-2-ylmethyl)pentan-2-ol]	potent agonists
COc1ccc(-c2ccccc2C#N)cc1C(C)(C)CC(O)(Cc1cc2cc(N3CCCCC3)ncc2[nH]1)C(F)(F)F (stereo not drawn) [4′-Methoxy-3′-[4,4,4-trifluoro-3-hydroxy-1,1-dimethyl-3-(5-piperidin-1-yl-1H-pyrrolo[2,3-c]pyridin-2-ylmethyl)butyl]biphenyl-2-carbonitrile]	potent agonists
COc1ccc(F)cc1C(C)(C)CC(O)(Cc1cc2cnccc2[nH]1)C1CC1 (stereo not drawn) [2-Cyclopropyl-4-(5-fluoro-2-methoxyphenyl)-4-methyl-1-(1H-pyrrolo[3,2-c]pyridin-2-yl)pentan-2-ol]	agonists
CC(C)Oc1cc2cc(CC(O)(CC(C)(C)c3cc(-c4ccccc4)cc4c3OCC4)C(F)(F)F)[nH]c2cn1 (stereo not drawn) [1,1,1-Trifluoro-2-(5-isopropoxy-1H-pyrrolo[2,3-c]pyridin-2-ylmethyl)-4-methyl-4-(5-phenyl-2,3-dihydrobenzofuran-7-yl)pentan-2-ol]	potent agonists
CC(C)(CC(O)(Cc1cc2nc(-c3ccccc3)ncc2[nH]1)C(F)(F)F)c1cccc(F)c1 (stereo not drawn) [1,1,1-Trifluoro-4-(3-fluorophenyl)-4-methyl-2-(2-phenyl-5H-pyrrolo[3,2-d]pyrimidin-6-ylmethyl)pentan-2-ol]	potent agonists
CC(C)C(O)(Cc1cc2ccncc2[nH]1)CC(C)(C)c1cc(Cl)cc2c1OCC2 (stereo not drawn) [5-(5-Chloro-2,3-dihydrobenzofuran-7-yl)-2,5-dimethyl-3-(1H-pyrrolo[2,3-c]pyridin-2-ylmethyl)hexan-3-ol]	agonists
CCN(C)c1cc2cc(CC(O)(CC(C)(C)c3cc(-c4ccccc4C#N)ccc3O)C(F)(F)F)[nH]c2cn1 (stereo not drawn) [3′-{3-[5-(Ethylmethylamino)-1H-pyrrolo[2,3-c]pyridin-2-ylmethyl]-4,4,4-trifluoro-3-hydroxy-1,1-dimethylbutyl}-4′-hydroxybiphenyl-2-carbonitrile]	potent agonists
Cc1ccc(F)cc1C(C)(C)CC(O)(Cc1cc2cnccc2[nH]1)C1CC1 (stereo not drawn) [2-Cyclopropyl-4-(5-fluoro-2-methylphenyl)-4-methyl-1-(1H-pyrrolo[3,2-c]pyridin-2-yl)pentan-2-ol]	agonists
CC(C)(CC(O)(Cc1cc2ccncc2[nH]1)C(F)(F)F)c1cc(-c2ccsc2)ccc1O (stereo not drawn) [4-Thiophen-3-yl-2-[4,4,4-trifluoro-3-hydroxy-1,1-dimethyl-3-(1H-pyrrolo[2,3-c]pyridin-2-ylmethyl)butyl]phenol]	potent agonists
CC(C)(CC(O)(Cc1cc2nc(CN3CCOCC3)ccc2[nH]1)C(F)(F)F)c1cc(Cl)cc2c1OCC2 (stereo not drawn) [4-(5-Chloro-2,3-dihydrobenzofuran-7-yl)-1,1,1-trifluoro-4-methyl-2-(5-morpholin-4-ylmethyl-1H-pyrrolo[3,2-b]pyridin-2-ylmethyl)pentan-2-ol]	potent agonists
CC(C)(CC(O)(Cc1cc2cnccc2[nH]1)C(F)F)c1cc(F)ccc1O (stereo not drawn) [2-[4,4-Difluoro-3-hydroxy-1,1-dimethyl-3-(1H-pyrrolo[3,2-c]pyridin-2-ylmethyl)butyl]-4-fluorophenol]	agonists
CC(C)(CC(O)(Cn1ccc2c1CCCC2=O)C(F)(F)F)c1cccc2c1OCC2 (stereo not drawn) [1-[4-(2,3-Dihydrobenzofuran-7-yl)-2-hydroxy-4-methyl-2-trifluoromethylpentyl]-1,5,6,7-tetrahydroindol-4-one]	agonists
COc1ccc(Br)cc1C(C)(C)CC(O)(Cc1cc2ccncc2[nH]1)C(F)(F)F (stereo not drawn) [4-(5-Bromo-2-methoxyphenyl)-1,1,1-trifluoro-4-methyl-2-(1H-pyrrolo[2,3-c]pyridin-2-ylmethyl)pentan-2-ol]	potent agonists
